# Patent US20070208085A1 (SOMANTA LIMITED, priority 2006, published 2007)
# Where two headings read alike, the source gives them in different places.
# Columns and labels:
# [1] = tested on: A2780 human ovarian carcinoma cell line; conditions: cited from earlier work
# [2] = tested on: doxorubicin-resistant and cisplatin-resistant tumor cell lines; conditions: cited from earlier work
# BT549 = assay: NCI human cell line panel cytotoxicity; format: cell-based; conditions: BT-549, Breast
# Experimental: (§1) To identify the activity of the compound of formula IV in additional cell lines, an NCI human cell line panel was screened for sensitivity to the compound. Cytotoxicity was evaluated for chloroethylaminoanthraquinone compounds synthesized as described in EXAMPLE 1, using an in vitro cell based assay as described in Pors et al., Mol. Cancer Ther., 2:607-610 (2003).
# (§2) Human tumor cell lines from the NCI human cell line panel (Table 2) were tested in the assay.
# (§3) Growth inhibition was determined, and was expressed as the concentration (nM) required to inhibit cell growth by 50% (IG50). […] In particular, excellent activity was observed against CNS, colon, NSCLC and renal cancer cell lines. […] Standard methods were used for MTT results (Monks A et. al., J. Natl Cancer Inst. 1991 June 5;83(11):757-66).
# MDA-MB-231/ATCC = assay: NCI human cell line panel cytotoxicity; format: cell-based; conditions: Breast
# Experimental: as §1, §2, §3
# ACHN = assay: NCI human cell line panel cytotoxicity; format: cell-based; conditions: Renal
# Experimental: as §1, §2, §3
# A549/ATCC = assay: NCI human cell line panel cytotoxicity; format: cell-based; conditions: NSCLC
# Experimental: as §1, §2, §3
# DU145 = assay: NCI human cell line panel cytotoxicity; format: cell-based; conditions: DU-145, Prostate
# Experimental: as §1, §2, §3
# HCT-15 = assay: NCI human cell line panel cytotoxicity; format: cell-based; conditions: Colon
# Experimental: as §1, §2, §3
# EKVX = assay: NCI human cell line panel cytotoxicity; format: cell-based; conditions: NSCLC
# Experimental: as §1, §2, §3
# NCI-H322M = assay: NCI human cell line panel cytotoxicity; format: cell-based; conditions: NSCLC
# Experimental: as §1, §2, §3
# HCT-116 = assay: NCI human cell line panel cytotoxicity; format: cell-based; conditions: Colon
# Experimental: as §1, §2, §3
# UACC-257 = assay: NCI human cell line panel cytotoxicity; format: cell-based; conditions: Melanoma
# Experimental: as §1, §2, §3
# KM 12 = assay: NCI human cell line panel cytotoxicity; format: cell-based; conditions: KM12, Colon
# Experimental: as §1, §2, §3
# UACC-62 = assay: NCI human cell line panel cytotoxicity; format: cell-based; conditions: Melanoma
# Experimental: as §1, §2, §3
# NCI-H226 = assay: NCI human cell line panel cytotoxicity; format: cell-based; conditions: NSCLC
# Experimental: as §1, §2, §3
# MCF7 = assay: NCI human cell line panel cytotoxicity; format: cell-based; conditions: Breast
# Experimental: as §1, §2, §3
# MDA-MB-435 = assay: NCI human cell line panel cytotoxicity; format: cell-based; conditions: Breast
# Experimental: as §1, §2, §3
# SN12C = assay: NCI human cell line panel cytotoxicity; format: cell-based; conditions: Renal
# Experimental: as §1, §2, §3
# RPMI 8226 = assay: NCI human cell line panel cytotoxicity; format: cell-based; conditions: Leuk
# Experimental: as §1, §2, §3
# NCI-H460 = assay: NCI human cell line panel cytotoxicity; format: cell-based; conditions: NSCLC
# Experimental: as §1, §2, §3
# SK MEL 5 = assay: NCI human cell line panel cytotoxicity; format: cell-based; conditions: Melanoma
# Experimental: as §1, §2, §3
# 786-0 = assay: NCI human cell line panel cytotoxicity; format: cell-based; conditions: Renal
# Experimental: as §1, §2, §3
# PC3 = assay: NCI human cell line panel cytotoxicity; format: cell-based; conditions: PC-3, Prostate
# Experimental: as §1, §2, §3
# U251 = assay: NCI human cell line panel cytotoxicity; format: cell-based; conditions: U-251, CNS
# Experimental: as §1, §2, §3
# TK10 = assay: NCI human cell line panel cytotoxicity; format: cell-based; conditions: TK-10, Renal
# Experimental: as §1, §2, §3
# HS 578T = assay: NCI human cell line panel cytotoxicity; format: cell-based; conditions: Breast
# Experimental: as §1, §2, §3
# LOX IMVI = assay: NCI human cell line panel cytotoxicity; format: cell-based; conditions: Melanoma
# Experimental: as §1, §2, §3
# SF 539 = assay: NCI human cell line panel cytotoxicity; format: cell-based; conditions: CNS
# Experimental: as §1, §2, §3
# HT-29 = assay: NCI human cell line panel cytotoxicity; format: cell-based; conditions: Colon
# Experimental: as §1, §2, §3
# SF 268 = assay: NCI human cell line panel cytotoxicity; format: cell-based; conditions: CNS
# Experimental: as §1, §2, §3
# NCI human cell lines = assay: NCI human cell line panel, mean over cell lines; format: cell-based; conditions: mean against the NCI human cell lines (28 tested)
# Experimental: as §1, §2, §3
# [3] = tested on: human osteosarcoma cell line (U-2 OS); assay: Cell cycle events by flow cytometry and timelapse, cyclin B1-GFP reporter; format: cell-based; conditions: U2-OS
# Experimental: The U2 OS cells were stably transfected with a Green Fluorescent Protein tagged Cyclin B1 reporter and maintained at 37° C. and 5% CO2 in McCoys 5A modified medium (Sigma) supplemented with 2 mM glutamine, 100 units/ml penicillin, 100 μg/ml streptomycin, 10% fetal calf serum and 1000 μg/ml geneticin. Appropriate dilutions were added to the wells to obtain treatment regimes of 0, 10 and 100 nM of the experimental compound.
# The cells were plated in a 6 well plate (density ˜15-20%). Each experiment consisted of the paired drug treatment at the appropriate dose added to the cells and the plate was placed on a stage of an inverted microscope in a sealed environment (37° C./humidified 5% CO2), and the entire apparatus was situated on a vibration-free table. Three fields were selected per well to triplicate the sampling for each experiment. Images at 10× magnification and were taken every 15 minutes over 3 days using a Cohu cooled CCD camera and the programme AQM Advance 6 to store the images. The images were viewed using the Metamorph programme.
# Experimental data derived from the timelapse were analyzed by comparing the morphology of the cells and the relative growth rates per treatment regimen. This was achieved by counting the number of live cells per field every 12 hours (since a normal cell has a generation time of 24 hours) and plotting the data into relative growth curves. The initial rate of growth (between time points 0-12 and 12-24) was then calculated.
# Samples by flow cytometry. U-2 OS cells were treated with the compound in a 6 well plate in an incubator over 2 days. Cells were then extracted from the plate, and Draq5 added to stain the DNA before they were analyzed using a Becton Dickinson FACS Vantage flow cytometer. The flow data was gated for intact cells, and the DRAQ5 levels (indicator of DNA content) were extracted.
# DNA content and Cyclin B1 expression were measured using flow cytometry and a p53 functional human osteosarcoma cell line (U2-OS) as described above.
compound,measurement,setting,value
CN(C)CCNc1ccc(NCCN(CCCl)CCCl)c2c1C(=O)c1c(O)ccc(O)c1C2=O [Compound IV],cytotoxicity,[1],potent cytotoxicity
same,cellular drug resistance,"[2]; Pors et al., 2003",very low resistance
same,cytotoxicity against resistant cell lines,"[2]; doxorubicin-resistant and cisplatin-resistant tumor cell lines, in vitro",maintained potent cytotoxicity
same,resistance relative to doxorubicin,"[2]; fold less resistant, Pors et al., 2003",250 fold
same,resistance relative to the other chloroethylaminoanthraquinones tested,"[2]; fold less, Pors et al., 2003",20-150 fold
same,IC50,BT549; read-out: IC50 nM,2040 nM
same,IC50,BT549; read-out: IC50,2040 nM
same,IC50,BT549; read-out: Log IC50 (converted),2040 nM
same,IC50,MDA-MB-231/ATCC; read-out: IC50 nM,100 nM
same,IC50,MDA-MB-231/ATCC; read-out: IC50,100 nM
same,IC50,MDA-MB-231/ATCC; read-out: Log IC50 (converted),100 nM
same,IC50,ACHN; read-out: IC50 nM,< 10 nM
same,IC50,ACHN; read-out: IC50,< 10 nM
same,IC50,ACHN; read-out: Log IC50 (converted),≤ 10 nM
same,IC50,A549/ATCC; read-out: IC50 nM,27 nM
same,IC50,A549/ATCC; read-out: IC50,26.9 nM
same,IC50,A549/ATCC; read-out: Log IC50 (converted),26.9 nM
same,IC50,DU145; read-out: IC50 nM,50 nM
same,IC50,DU145; read-out: IC50,50.1 nM
same,IC50,DU145; read-out: Log IC50 (converted),50.1 nM
same,IC50,HCT-15; read-out: IC50 nM,< 10 nM
same,IC50,HCT-15; read-out: IC50,< 10 nM
same,IC50,HCT-15; read-out: Log IC50 (converted),≤ 10 nM
same,IC50,EKVX; read-out: IC50 nM,759 nM
same,IC50,EKVX; read-out: IC50,759 nM
same,IC50,EKVX; read-out: Log IC50 (converted),759 nM
same,IC50,NCI-H322M; read-out: IC50 nM,295 nM
same,IC50,NCI-H322M; read-out: IC50,295 nM
same,IC50,NCI-H322M; read-out: Log IC50 (converted),295 nM
same,IC50,HCT-116; read-out: IC50 nM,< 10 nM
same,IC50,HCT-116; read-out: IC50,< 10 nM
same,IC50,HCT-116; read-out: Log IC50 (converted),≤ 10 nM
same,IC50,UACC-257; read-out: IC50 nM,1860 nM
same,IC50,UACC-257; read-out: IC50,1860 nM
same,IC50,UACC-257; read-out: Log IC50 (converted),1860 nM
same,IC50,KM 12; read-out: IC50 nM,138 nM
same,IC50,KM 12; read-out: IC50,138 nM
same,IC50,KM 12; read-out: Log IC50 (converted),138 nM
same,IC50,UACC-62; read-out: IC50 nM,219 nM
same,IC50,UACC-62; read-out: IC50,219 nM
same,IC50,UACC-62; read-out: Log IC50 (converted),219 nM
same,IC50,NCI-H226; read-out: IC50 nM,54 nM
same,IC50,NCI-H226; read-out: IC50,53.7 nM
same,IC50,NCI-H226; read-out: Log IC50 (converted),53.7 nM
same,IC50,MCF7; read-out: IC50 nM,< 10 nM
same,IC50,MCF7; read-out: IC50,< 10 nM
same,IC50,MCF7; read-out: Log IC50 (converted),≤ 10 nM
same,IC50,MDA-MB-435; read-out: IC50 nM,21 nM
same,IC50,MDA-MB-435; read-out: IC50,20.9 nM
same,IC50,MDA-MB-435; read-out: Log IC50 (converted),20.9 nM
same,IC50,SN12C; read-out: IC50 nM,27 nM
same,IC50,SN12C; read-out: IC50,26.9 nM
same,IC50,SN12C; read-out: Log IC50 (converted),26.9 nM
same,IC50,RPMI 8226; read-out: IC50 nM,< 10 nM
same,IC50,RPMI 8226; read-out: IC50,< 10 nM
same,IC50,RPMI 8226; read-out: Log IC50 (converted),≤ 10 nM
same,IC50,NCI-H460; read-out: IC50 nM,< 10 nM
same,IC50,NCI-H460; read-out: IC50,< 10 nM
same,IC50,NCI-H460; read-out: Log IC50 (converted),≤ 10 nM
same,IC50,SK MEL 5; read-out: IC50 nM,71 nM
same,IC50,SK MEL 5; read-out: IC50,70.8 nM
same,IC50,SK MEL 5; read-out: Log IC50 (converted),70.8 nM
same,IC50,786-0; read-out: IC50 nM,< 10 nM
same,IC50,786-0; read-out: IC50,< 10 nM
same,IC50,786-0; read-out: Log IC50 (converted),≤ 10 nM
same,IC50,PC3; read-out: IC50 nM,50 nM
same,IC50,PC3; read-out: IC50,50.1 nM
same,IC50,PC3; read-out: Log IC50 (converted),50.1 nM
same,IC50,U251; read-out: IC50 nM,19 nM
same,IC50,U251; read-out: IC50,19.1 nM
same,IC50,U251; read-out: Log IC50 (converted),19.1 nM
same,IC50,TK10; read-out: IC50 nM,407 nM
same,IC50,TK10; read-out: IC50,407 nM
same,IC50,TK10; read-out: Log IC50 (converted),407 nM
same,IC50,HS 578T; read-out: IC50 nM,525 nM
same,IC50,HS 578T; read-out: IC50,525 nM
same,IC50,HS 578T; read-out: Log IC50 (converted),525 nM
same,IC50,LOX IMVI; read-out: IC50 nM,< 10 nM
same,IC50,LOX IMVI; read-out: IC50,< 10 nM
same,IC50,LOX IMVI; read-out: Log IC50 (converted),≤ 10 nM
same,IC50,SF 539; read-out: IC50 nM,< 10 nM
same,IC50,SF 539; read-out: IC50,< 10 nM
same,IC50,SF 539; read-out: Log IC50 (converted),≤ 10 nM
same,IC50,HT-29; read-out: IC50 nM,< 10 nM
same,IC50,HT-29; read-out: IC50,< 10 nM
same,IC50,HT-29; read-out: Log IC50 (converted),≤ 10 nM
same,IC50,SF 268; read-out: IC50 nM,< 10 nM
same,IC50,SF 268; read-out: IC50,< 10 nM
same,IC50,SF 268; read-out: Log IC50 (converted),≤ 10 nM
same,IC50,NCI human cell lines,49 nM
same,G2 arrest,[3],limited expression of G2 arrest
same,polyploidy on escape from G2 arrest (B1 cyclin tracking),[3],forced some cells to enter polyploidy via an aberrant mitosis
same,pan-cell cycle progression and mitotic commitment,[3]; compared to untreated cells,slowed pan-cell cycle progression and mitotic commitment
same,induction of apoptosis,[3]; immediate (<24 h),without any immediate (<24 h) induction of apoptosis
